The source made the active and inactive calls. Rule as the data show it, for most assays here: actives have a measured EC50 and inactives only a lower limit.
Columns and labels:
[1] = target: T1, Replicative DNA helicase DnaB (Mycobacterium tuberculosis, UniProt P9WMR3); assay: DnaB intein splicing inhibitors, dose response, biochemical, cell-free fluorescence (AID 449749); type: functional
T1 sequence (P9WMR3 whole entry): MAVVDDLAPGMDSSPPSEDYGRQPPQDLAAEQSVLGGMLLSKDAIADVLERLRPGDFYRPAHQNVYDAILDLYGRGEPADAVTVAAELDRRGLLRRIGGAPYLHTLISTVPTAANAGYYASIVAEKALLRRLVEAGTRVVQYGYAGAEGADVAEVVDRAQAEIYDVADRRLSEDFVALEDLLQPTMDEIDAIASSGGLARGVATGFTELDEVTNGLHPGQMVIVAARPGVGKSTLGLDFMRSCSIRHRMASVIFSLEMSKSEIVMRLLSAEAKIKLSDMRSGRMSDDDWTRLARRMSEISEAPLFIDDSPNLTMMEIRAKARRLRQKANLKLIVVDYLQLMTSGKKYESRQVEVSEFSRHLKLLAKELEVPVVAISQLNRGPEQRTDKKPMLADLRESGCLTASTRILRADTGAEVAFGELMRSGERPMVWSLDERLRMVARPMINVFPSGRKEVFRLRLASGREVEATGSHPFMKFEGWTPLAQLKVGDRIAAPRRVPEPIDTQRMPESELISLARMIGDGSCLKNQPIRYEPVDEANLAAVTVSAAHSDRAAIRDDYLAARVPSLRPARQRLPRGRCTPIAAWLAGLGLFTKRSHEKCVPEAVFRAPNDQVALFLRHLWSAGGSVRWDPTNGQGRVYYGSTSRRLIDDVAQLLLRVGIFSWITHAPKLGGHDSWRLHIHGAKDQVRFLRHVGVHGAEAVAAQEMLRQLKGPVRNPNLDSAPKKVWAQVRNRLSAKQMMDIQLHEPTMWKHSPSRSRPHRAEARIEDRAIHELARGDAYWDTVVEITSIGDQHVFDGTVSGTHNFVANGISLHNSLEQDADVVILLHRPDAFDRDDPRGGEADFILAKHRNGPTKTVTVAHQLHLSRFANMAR

[2] = target: T2, Protein RecA (Mycobacterium tuberculosis, UniProt P9WHJ3); assay: Fluorescence Cell-Free Homogeneous Dose Retest to Identify Inhibitors of RecA-Intein Splicing Activity. [Related pubchem assays (depositor defined):AID2097, AID2223, AID489010, AID492950]; type: functional
T2 sequence (P9WHJ3 whole entry): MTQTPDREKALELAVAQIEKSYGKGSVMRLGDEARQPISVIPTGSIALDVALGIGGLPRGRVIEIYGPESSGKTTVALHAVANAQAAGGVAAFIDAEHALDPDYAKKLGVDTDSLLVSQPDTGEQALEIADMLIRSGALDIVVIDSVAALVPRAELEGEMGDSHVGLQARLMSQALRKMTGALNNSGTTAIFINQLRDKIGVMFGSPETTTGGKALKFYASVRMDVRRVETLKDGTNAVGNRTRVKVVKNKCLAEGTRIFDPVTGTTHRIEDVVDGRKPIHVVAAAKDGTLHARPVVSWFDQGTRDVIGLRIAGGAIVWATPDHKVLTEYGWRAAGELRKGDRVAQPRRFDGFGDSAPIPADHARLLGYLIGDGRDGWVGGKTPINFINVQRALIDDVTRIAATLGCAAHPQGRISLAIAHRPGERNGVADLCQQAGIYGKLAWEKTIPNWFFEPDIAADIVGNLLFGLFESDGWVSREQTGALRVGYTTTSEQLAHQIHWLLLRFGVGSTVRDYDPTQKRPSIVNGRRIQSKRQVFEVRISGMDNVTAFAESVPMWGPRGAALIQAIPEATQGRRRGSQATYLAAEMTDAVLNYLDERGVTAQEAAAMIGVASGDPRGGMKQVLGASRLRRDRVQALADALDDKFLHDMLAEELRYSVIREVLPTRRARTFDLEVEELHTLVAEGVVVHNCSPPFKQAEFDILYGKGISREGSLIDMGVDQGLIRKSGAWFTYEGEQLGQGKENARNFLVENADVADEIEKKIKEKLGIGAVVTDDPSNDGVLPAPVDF

[3] = test system: BJ; assay: BJ-TERT fibroblast viability loss – cell-based, RAS-independent, luminescence, dose response (AID 1933); type: functional; conditions: Homo sapiens
[4] = test system: BJ; assay: cells; type: functional, cell-based; conditions: Homo sapiens
[5] = test system: BJ; assay: BJ-TERT-LT-ST fibroblast viability loss – cell-based, RAS-independent, luminescence, dose response (AID 1935); type: functional; conditions: Homo sapiens;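 also: BJ fibroblasts immortalized with TERT plus LT and ST oncogenes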
[6] = DRD fibroblast viability loss – cell-based, non-viral oncogenic, luminescence, dose response (AID 1934); type: functional; conditions: Homo sapiens
[7] = target: T3, Rac GTPase-activating protein 1 (Homo sapiens, UniProt Q9H0H5); assay: blockers of MgcRacGAP-driven Rac1 GTP hydrolysis – biochemical, ADP Hunter fluorescence, primary and confirmatory, confirmation (AID 624330); type: functional
T3 sequence (Q9H0H5 whole entry): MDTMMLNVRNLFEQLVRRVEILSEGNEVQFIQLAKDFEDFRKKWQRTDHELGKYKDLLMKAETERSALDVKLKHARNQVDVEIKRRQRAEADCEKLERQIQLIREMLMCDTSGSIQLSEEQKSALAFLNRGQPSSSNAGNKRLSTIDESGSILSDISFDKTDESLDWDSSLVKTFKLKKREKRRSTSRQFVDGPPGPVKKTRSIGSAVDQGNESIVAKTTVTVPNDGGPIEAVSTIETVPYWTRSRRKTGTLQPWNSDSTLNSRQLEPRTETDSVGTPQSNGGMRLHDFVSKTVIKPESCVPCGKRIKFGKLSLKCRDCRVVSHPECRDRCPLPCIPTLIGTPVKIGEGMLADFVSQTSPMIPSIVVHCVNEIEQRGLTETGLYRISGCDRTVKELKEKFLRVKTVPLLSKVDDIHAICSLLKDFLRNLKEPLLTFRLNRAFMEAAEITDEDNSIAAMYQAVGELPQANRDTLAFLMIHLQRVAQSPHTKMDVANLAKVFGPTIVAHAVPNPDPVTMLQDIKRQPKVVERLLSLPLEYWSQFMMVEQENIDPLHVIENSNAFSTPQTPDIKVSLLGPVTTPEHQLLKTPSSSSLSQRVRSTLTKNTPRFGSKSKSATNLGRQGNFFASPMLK

[8] = Luminescence Cell-Based Dose Confirmation HTS to Identify Inhibitors of Platelet Dense Granule Release. [Related pubchem assays: 1663 (Primary HTS), 1678 (Summary of Project)]; type: functional
[9] = target: Luciferin 4-monooxygenase (Photinus pyralis, UniProt P08659); assay: inhibition of purified Photinus pyralis luciferase – biochemical, luminescence, dose response (AID 1891)
Luciferin 4-monooxygenase, sequence (P08659 whole entry): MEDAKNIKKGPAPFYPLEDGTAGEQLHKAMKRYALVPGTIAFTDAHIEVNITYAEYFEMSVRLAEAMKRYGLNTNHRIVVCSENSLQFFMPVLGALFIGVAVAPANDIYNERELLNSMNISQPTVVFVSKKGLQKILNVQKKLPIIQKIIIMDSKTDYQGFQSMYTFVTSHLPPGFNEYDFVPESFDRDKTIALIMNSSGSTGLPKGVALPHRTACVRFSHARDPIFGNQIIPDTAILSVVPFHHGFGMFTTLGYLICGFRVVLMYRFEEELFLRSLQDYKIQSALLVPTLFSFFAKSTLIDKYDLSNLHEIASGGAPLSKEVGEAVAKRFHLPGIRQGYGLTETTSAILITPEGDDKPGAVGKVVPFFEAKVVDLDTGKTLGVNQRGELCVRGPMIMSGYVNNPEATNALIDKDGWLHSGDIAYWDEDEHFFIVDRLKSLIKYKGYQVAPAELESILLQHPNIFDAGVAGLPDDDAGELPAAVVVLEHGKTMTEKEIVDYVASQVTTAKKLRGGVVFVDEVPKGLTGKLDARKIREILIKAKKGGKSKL

[10] = alpha-synuclein stem-loop luciferase translation blockers – H4 neuroglioma cells, luminescence, confirmation (AID 1988); type: functional, cell-based
[11] = target: T4, Heat shock factor protein 1 (Mus musculus, UniProt P38532); assay: enhancement of HSF1-driven luciferase signal – cell-based, NIH3T3, luminescence, dose retest, confirmation (AID 435004); type: functional;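 also: stress induced by proteasome inhibitor MG132 added 30 min after compound; luciferase reporter driven by HSF1 response element in NIH3T3 cells; actives raise luminescence as potentiators of the MG132 stress response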
T4 sequence (P38532 whole entry): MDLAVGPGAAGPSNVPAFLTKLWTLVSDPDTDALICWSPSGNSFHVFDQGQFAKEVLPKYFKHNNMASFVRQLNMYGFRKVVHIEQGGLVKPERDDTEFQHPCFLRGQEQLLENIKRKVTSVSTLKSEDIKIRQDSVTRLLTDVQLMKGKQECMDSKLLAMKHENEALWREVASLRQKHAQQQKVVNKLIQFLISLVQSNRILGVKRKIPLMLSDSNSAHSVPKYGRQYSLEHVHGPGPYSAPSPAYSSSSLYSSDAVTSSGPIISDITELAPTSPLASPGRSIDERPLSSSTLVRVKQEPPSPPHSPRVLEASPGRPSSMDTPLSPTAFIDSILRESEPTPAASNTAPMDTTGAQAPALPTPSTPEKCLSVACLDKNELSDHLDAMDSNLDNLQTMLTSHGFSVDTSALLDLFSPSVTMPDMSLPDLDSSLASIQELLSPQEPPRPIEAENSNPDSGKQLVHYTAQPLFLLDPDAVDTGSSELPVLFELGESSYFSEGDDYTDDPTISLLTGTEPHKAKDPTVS

[12] = test system: INS1; assay: INS-1E survival protection against cytokine death – cell-based, luminescence, retest, dose response (AID 449756); type: functional; conditions: Rattus norvegicus;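 also: cell death triggered by IL-1 beta plus TNF-alpha plus IFN-gamma mixture; protective hits raise ATP signal compared with cytokine alone wells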
[13] = target: T5, Corticotropin-releasing factor receptor 2/Corticotropin-releasing factor-binding protein (Homo sapiens, UniProt P24387+Q13324); assay: activators of CRF receptor 2 with binding protein – uHTS hits, confirmation (AID 602473); type: functional; conditions: read-out: EC50_Mean
T5 sequence (Q13324 whole entry): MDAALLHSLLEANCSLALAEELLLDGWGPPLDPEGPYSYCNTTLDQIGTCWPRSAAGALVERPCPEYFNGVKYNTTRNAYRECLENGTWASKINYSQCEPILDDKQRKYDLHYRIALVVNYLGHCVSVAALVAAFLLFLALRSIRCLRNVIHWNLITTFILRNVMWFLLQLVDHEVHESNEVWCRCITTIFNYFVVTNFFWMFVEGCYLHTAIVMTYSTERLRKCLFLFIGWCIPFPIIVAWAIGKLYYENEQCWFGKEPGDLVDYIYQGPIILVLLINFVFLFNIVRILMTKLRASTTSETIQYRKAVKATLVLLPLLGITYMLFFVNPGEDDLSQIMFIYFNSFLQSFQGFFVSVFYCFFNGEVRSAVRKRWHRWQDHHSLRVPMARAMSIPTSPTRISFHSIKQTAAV
T5 sequence (P24387 whole entry): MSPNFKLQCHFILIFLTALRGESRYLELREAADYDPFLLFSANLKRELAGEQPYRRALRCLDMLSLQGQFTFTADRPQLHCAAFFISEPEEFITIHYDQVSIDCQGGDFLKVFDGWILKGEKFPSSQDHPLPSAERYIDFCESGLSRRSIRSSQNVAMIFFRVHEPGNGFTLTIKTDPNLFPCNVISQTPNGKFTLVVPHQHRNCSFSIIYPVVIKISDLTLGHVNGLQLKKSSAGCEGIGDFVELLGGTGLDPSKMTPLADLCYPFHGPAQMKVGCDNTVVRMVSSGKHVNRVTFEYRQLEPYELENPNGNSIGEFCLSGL

[14] = target: Large T antigen (Simian virus 40, UniProt P03070); type: functional, Betapolyomavirus macacae;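 also: Confirmatory-stage PubChem screen for compounds that inhibit SV40 T antigen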
Large T antigen, sequence (P03070 whole entry): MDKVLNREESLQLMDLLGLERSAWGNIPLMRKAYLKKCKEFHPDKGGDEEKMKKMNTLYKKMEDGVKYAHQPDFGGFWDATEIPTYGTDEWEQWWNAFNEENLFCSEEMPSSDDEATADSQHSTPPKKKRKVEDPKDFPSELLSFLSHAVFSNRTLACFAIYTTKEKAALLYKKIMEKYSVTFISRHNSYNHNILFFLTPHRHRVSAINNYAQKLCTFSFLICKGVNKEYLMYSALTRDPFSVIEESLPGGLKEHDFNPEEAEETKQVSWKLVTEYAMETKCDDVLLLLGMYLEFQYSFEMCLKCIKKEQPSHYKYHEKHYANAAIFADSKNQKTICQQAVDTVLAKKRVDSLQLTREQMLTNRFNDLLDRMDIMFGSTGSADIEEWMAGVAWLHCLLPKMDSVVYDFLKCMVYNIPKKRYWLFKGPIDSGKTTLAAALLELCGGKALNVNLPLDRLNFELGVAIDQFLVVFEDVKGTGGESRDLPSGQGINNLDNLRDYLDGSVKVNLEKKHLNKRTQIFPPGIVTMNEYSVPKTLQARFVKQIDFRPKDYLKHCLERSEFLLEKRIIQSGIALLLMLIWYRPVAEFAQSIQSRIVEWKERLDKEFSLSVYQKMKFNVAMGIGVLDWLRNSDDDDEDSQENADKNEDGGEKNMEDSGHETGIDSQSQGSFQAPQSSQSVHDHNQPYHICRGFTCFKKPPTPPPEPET

[15] = target: FAD-linked sulfhydryl oxidase ALR (Homo sapiens, UniProt P55789); assay: ALR-catalysed DTT oxidation blockers – biochemical, H2O2 detection, luminescence, cherry-pick, dose response (AID 493248)
FAD-linked sulfhydryl oxidase ALR, sequence (P55789 whole entry): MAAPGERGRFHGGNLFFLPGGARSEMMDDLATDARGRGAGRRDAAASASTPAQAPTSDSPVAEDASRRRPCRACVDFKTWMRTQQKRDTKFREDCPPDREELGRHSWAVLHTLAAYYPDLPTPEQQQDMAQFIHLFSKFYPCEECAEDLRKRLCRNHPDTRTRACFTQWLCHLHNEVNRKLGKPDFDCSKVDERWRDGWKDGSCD

COc1ccc(OC)c(C(c2c(C)n[nH]c2O)c2c(C)n[nH]c2O)c1
AC50 [1]: 0.296 µM (active)
EC50 [2]: 0.211 µM (active)

CC(C)(C)NC(=O)CN1CCN(C(=O)CCl)CC1
EC50 [3]: > 150 µM (not active)
EC50 [4]: > 150 µM (inconclusive)
EC50 [5]: > 150 µM (not active)
EC50 [6]: > 150 µM (not active)

NC(CSS(=O)(=O)O)=NCCC12CC3CC(CC(O)(C3)C1)C2
IC50 [7]: 142 µM (active)

Cc1nnc(NC(=O)CSc2cn(CCNC(=O)c3ccccc3)c3ccccc23)s1
EC50 [8]: 80 µM (active)
EC50 [9]: > 112 µM (not active)

NSc1nc(N)c2nc(-c3ccccc3)c(-c3ccccc3)nc2n1
IC50 [7]: 99.2 µM (active)

CC(C)(C)NC(=O)C(c1cccs1)N(CC1CCCO1)C(=O)c1ccc(-c2ccccc2)[nH]1 (stereo not drawn)
AC50 [1]: 37.9 µM (active)
EC50 [2]: 169 µM (active)

CN(C)c1ccc(NC(=O)c2ccncc2)c2ccccc12
AC50 [1]: 66.5 µM (active)
EC50 [2]: 45.4 µM (active)

Oc1nc(/C=C/c2ccccc2F)nc2ccccc12
EC50 [10]: 7.23 µM (inconclusive)
EC50 [3]: 2.12 µM (active)
EC50 [4]: 45.2 µM (inconclusive)
EC50 [5]: 29.3 µM (inconclusive)
EC50 [6]: 2.25 µM (active)

COc1ccc(CN2C(=O)NC(=O)/C(=C\NNC(=O)c3ccccc3O)C2=O)cc1
AC50 [1]: 2.69 µM (active)
EC50 [2]: 32.2 µM (active)

Cc1nn(-c2cccc(Cl)c2)c2c1C(c1ccncc1)C(C#N)=C(N)O2 (stereo not drawn)
AC50 [1]: 9.1 µM (active)
EC50 [2]: 7.71 µM (active)
EC50 [11]: > 260 µM (inactive)

CC(NS(=O)(=O)c1ccc(Cl)cc1)C(=O)OCC(=O)Nc1ccc(N(C)C)cc1 (stereo not drawn)
IC50 [7]: 65.1 µM (active)

O=C(CCN1C(=O)/C(=C\c2ccccc2F)SC1=S)N1CCCCC1
EC50 [3]: 15.8 µM (active)
EC50 [4]: 14.4 µM (active)
EC50 [5]: > 75 µM (not active)
EC50 [6]: 15.5 µM (active)

O=C(c1c[nH]c(C(=O)C(Cl)(Cl)Cl)c1)c1ccccc1F
AC50 [1]: 12.6 µM (active)
EC50 [2]: 7.39 µM (active)

COc1ccc(NC2CCCN(C(=O)c3ccc(C)c(N4CCNC4=O)c3)C2)cc1 (stereo not drawn)
IC50 [7]: 129 µM (active)

COc1ccc(CN2CCN(C(=O)CC(C)C)CC2)cc1OC
IC50 [7]: 161 µM (active)

O=C(NC1C(=O)NNC1c1ccccc1)c1ccccc1 (stereo not drawn)
AC50 [1]: 8.8 µM (active)
EC50 [2]: 4.83 µM (active)
EC50 [11]: 246 µM (active)

Cc1ccc(CSC(Nc2ccc(F)cc2)=C(C#N)C#N)cc1
AC50 [12]: 3.19 µM (active)
EC50 [13]: > 53 µM (inactive)
EC50 [3]: 14.1 µM (active)
EC50 [4]: > 150 µM (not active)
EC50 [5]: > 75 µM (not active)
EC50 [6]: 76.4 µM (active)

COC(=O)CCSc1cc(NCCOC(C)=O)c([N+](=O)[O-])c2nonc12
AC50 [1]: 37.5 µM (active)
EC50 [2]: 4.63 µM (active)

Cc1ccc(C/N=C/c2[nH]c3ccc(Br)c(Cl)c3c2O)cc1
AC50 [1]: > 380 µM (inactive)
EC50 [2]: 1.43 µM (active)

COc1cc(/C=N/NC(=O)c2nc(C)cc(C)n2)ccc1O
IC50 [7]: 35.3 µM (active)
EC50 [13]: > 53 µM (inactive)
IC50 [14]: 39.5 µM (active)

O=C(N/N=C/c1ccc(N2CCOCC2)s1)c1ccc(O)cc1
IC50 [7]: 23.5 µM (active)

COc1cc(/C=N/NC(=O)CCn2nnc3ccccc32)ccc1O
IC50 [7]: 58.7 µM (active)
IC50 [14]: 8.58 µM (active)
AC50 [15]: 0.236 µM (active)

Source: ChEMBL document CHEMBL1201862, “PubChem BioAssay data set” (2004)
